# Reference: ChEMBL document CHEMBL1201862, “PubChem BioAssay data set” (2004)
#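 Assay format: 96-well plates, 48-hour exposure. Here, GI50 denotes the concentration required for 50% inhibition of growth.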 The source made the active and inactive calls. No stated cut-off is given here; in the data, active = GI50 up to about 1.1 µM and inactive = higher.
# What was measured:
# Experiment in all cases: NCI-60 cell line screen, 48 h
# 786-0 = tested on: 786-0
# A498 = tested on: A498
# A549 = tested on: A549
# ACHN = tested on: ACHN
# CAKI-1 = tested on: CAKI-1
# CCRF-CEM = tested on: CCRF-CEM
# COLO 205 = tested on: COLO 205
# DLD-1 = tested on: DLD-1
# DMS-114 = tested on: DMS-114
# EKVX = tested on: EKVX
# HCC 2998 = tested on: HCC 2998
# HCT-116 = tested on: HCT-116
# HCT-15 = tested on: HCT-15
# HL-60 = tested on: HL-60
# HOP-18 = tested on: HOP-18
# HOP-62 = tested on: HOP-62
# HOP-92 = tested on: HOP-92
# HT-29 = tested on: HT-29
# IGROV-1 = tested on: IGROV-1
# K562 = tested on: K562
# KM-20L2 = tested on: KM-20L2
# KM12 = tested on: KM12
# LOX IMVI = tested on: LOX IMVI
# LXFL 529 = tested on: LXFL 529
# M14 = tested on: M14
# M19-MEL = tested on: M19-MEL
# MOLT-4 = tested on: MOLT-4
# Malme-3M = tested on: Malme-3M
# NCI-H226 = tested on: NCI-H226
# NCI-H23 = tested on: NCI-H23
# NCI-H460 = tested on: NCI-H460
# NCI-H522 = tested on: NCI-H522
# OVCAR-3 = tested on: OVCAR-3
# OVCAR-4 = tested on: OVCAR-4
# OVCAR-5 = tested on: OVCAR-5
# OVCAR-8 = tested on: OVCAR-8
# RPMI-8226 = tested on: RPMI-8226
# RXF 393 = tested on: RXF 393
# RXF 631 = tested on: RXF 631
# SF-268 = tested on: SF-268
# SF-295 = tested on: SF-295
# SF-539 = tested on: SF-539
# SK-MEL-28 = tested on: SK-MEL-28
# SK-MEL-2 = tested on: SK-MEL-2
# SK-MEL-5 = tested on: SK-MEL-5
# SK-OV-3 = tested on: SK-OV-3
# SN12C = tested on: SN12C
# SNB-19 = tested on: SNB-19
# SNB-75 = tested on: SNB-75
# SNB-78 = tested on: SNB-78
# SR = tested on: SR
# SW-620 = tested on: SW-620
# TK-10 = tested on: TK-10
# U-251 = tested on: U-251
# UACC-257 = tested on: UACC-257
# UACC-62 = tested on: UACC-62
# UO-31 = tested on: UO-31
# XF498 = tested on: XF498
# DMS-273 = tested on: DMS-273
structure (smiles),measurement,setting,value
O=C(NCc1cccnc1)C1COc2cc(-c3cc(=O)c4ccccc4o3)ccc2O1 (stereo unspecified),GI50,786-0,7.19 µM (inactive)
same,GI50,A498,> 61.4 µM (inactive)
same,GI50,A549,5.79 µM (inactive)
same,GI50,ACHN,22.5 µM (inactive)
same,GI50,CAKI-1,> 63.7 µM (inactive)
same,GI50,CCRF-CEM,> 100 µM (inactive)
same,GI50,COLO 205,> 100 µM (inactive)
same,GI50,DLD-1,> 100 µM (inactive)
same,GI50,DMS-114,14.1 µM (inactive)
same,GI50,EKVX,> 81.5 µM (inactive)
same,GI50,HCC 2998,> 100 µM (inactive)
same,GI50,HCT-116,21.7 µM (inactive)
same,GI50,HCT-15,77.3 µM
same,GI50,HL-60,> 46.5 µM (inactive)
same,GI50,HOP-18,> 79.4 µM (inactive)
same,GI50,HOP-62,10.1 µM (inactive)
same,GI50,HOP-92,> 75.3 µM (inactive)
same,GI50,HT-29,> 87.3 µM (inactive)
same,GI50,IGROV-1,> 66.5 µM (inactive)
same,GI50,K562,> 80.2 µM (inactive)
same,GI50,KM-20L2,> 100 µM (inactive)
same,GI50,KM12,> 36.1 µM (inactive)
same,GI50,LOX IMVI,3.38 µM (inactive)
same,GI50,LXFL 529,4.95 µM (inactive)
same,GI50,M14,5.27 µM (inactive)
same,GI50,M19-MEL,3.93 µM (inactive)
same,GI50,MOLT-4,5.14 µM (inactive)
same,GI50,Malme-3M,> 64.6 µM (inactive)
same,GI50,NCI-H226,3.62 µM (inactive)
same,GI50,NCI-H23,13.6 µM (inactive)
same,GI50,NCI-H460,51.4 µM (inactive)
same,GI50,NCI-H522,10.7 µM (inactive)
same,GI50,OVCAR-3,> 100 µM (inactive)
same,GI50,OVCAR-4,55.3 µM (inactive)
same,GI50,OVCAR-5,> 100 µM (inactive)
same,GI50,OVCAR-8,3.64 µM (inactive)
same,GI50,RPMI-8226,> 100 µM (inactive)
same,GI50,RXF 393,28.7 µM (inactive)
same,GI50,RXF 631,> 56.1 µM (inactive)
same,GI50,SF-268,3.89 µM (inactive)
same,GI50,SF-295,7.6 µM (inactive)
same,GI50,SF-539,3.04 µM (inactive)
same,GI50,SK-MEL-28,3.49 µM (inactive)
same,GI50,SK-MEL-2,3.4 µM (inactive)
same,GI50,SK-MEL-5,26.1 µM (inactive)
same,GI50,SK-OV-3,> 100 µM (inactive)
same,GI50,SN12C,4.34 µM (inactive)
same,GI50,SNB-19,19.8 µM (inactive)
same,GI50,SNB-75,3.49 µM (inactive)
same,GI50,SNB-78,> 82.8 µM (inactive)
same,GI50,SR,5.46 µM (inactive)
same,GI50,SW-620,> 100 µM (inactive)
same,GI50,TK-10,> 57.9 µM (inactive)
same,GI50,U-251,5.93 µM (inactive)
same,GI50,UACC-257,4.94 µM (inactive)
same,GI50,UACC-62,30.4 µM (inactive)
same,GI50,UO-31,> 43.9 µM (inactive)
same,GI50,XF498,24.6 µM (inactive)
CN(C)NC1=C([N+](=O)[O-])C=NN(c2ccccc2)C1,GI50,786-0,1.77 µM (inactive)
same,GI50,A498,20.9 µM (inactive)
same,GI50,A549,2.1 µM (inactive)
same,GI50,ACHN,1.73 µM (inactive)
same,GI50,CAKI-1,1.95 µM (inactive)
same,GI50,CCRF-CEM,1.79 µM (inactive)
same,GI50,COLO 205,1.79 µM (inactive)
same,GI50,DLD-1,1.83 µM (inactive)
same,GI50,DMS-114,1.84 µM (inactive)
same,GI50,DMS-273,1.75 µM (inactive)
same,GI50,EKVX,1.75 µM (inactive)
same,GI50,HCC 2998,1.79 µM (inactive)
same,GI50,HCT-116,1.82 µM (inactive)
same,GI50,HCT-15,1.55 µM
same,GI50,HL-60,2.04 µM (inactive)
same,GI50,HOP-18,1.81 µM (inactive)
same,GI50,HOP-62,2.16 µM (inactive)
same,GI50,HOP-92,2.02 µM (inactive)
same,GI50,HT-29,1.95 µM (inactive)
same,GI50,IGROV-1,2.19 µM (inactive)
same,GI50,K562,2.44 µM (inactive)
same,GI50,KM-20L2,1.9 µM (inactive)
same,GI50,KM12,2.52 µM (inactive)
same,GI50,LOX IMVI,1.59 µM (inactive)
same,GI50,LXFL 529,1.65 µM (inactive)
same,GI50,M14,1.82 µM (inactive)
same,GI50,M19-MEL,1.81 µM (inactive)
same,GI50,MOLT-4,2.09 µM (inactive)
same,GI50,Malme-3M,1.96 µM (inactive)
same,GI50,NCI-H226,3.84 µM (inactive)
same,GI50,NCI-H23,1.87 µM (inactive)
same,GI50,NCI-H460,2.09 µM (inactive)
same,GI50,NCI-H522,0.177 µM (active)
same,GI50,OVCAR-3,1.85 µM (inactive)
same,GI50,OVCAR-4,1.66 µM (inactive)
same,GI50,OVCAR-5,1.67 µM (inactive)
same,GI50,OVCAR-8,2.04 µM (inactive)
same,GI50,RXF 393,1.93 µM (inactive)
same,GI50,RXF 631,1.53 µM (inactive)
same,GI50,SF-268,1.85 µM (inactive)
same,GI50,SF-295,1.81 µM (inactive)
same,GI50,SF-539,1.89 µM (inactive)
same,GI50,SK-MEL-28,1.81 µM (inactive)
same,GI50,SK-MEL-2,1.71 µM (inactive)
same,GI50,SK-MEL-5,2.56 µM (inactive)
same,GI50,SK-OV-3,1.97 µM (inactive)
same,GI50,SN12C,1.76 µM (inactive)
same,GI50,SNB-19,2.54 µM (inactive)
same,GI50,SNB-75,1.73 µM (inactive)
same,GI50,SNB-78,2.17 µM (inactive)
same,GI50,SR,0.811 µM (active)
same,GI50,SW-620,1.89 µM (inactive)
same,GI50,TK-10,3.19 µM (inactive)
same,GI50,U-251,1.76 µM (inactive)
same,GI50,UACC-257,1.74 µM (inactive)
same,GI50,UACC-62,1.71 µM (inactive)
same,GI50,UO-31,1.79 µM (inactive)
same,GI50,XF498,2.36 µM (inactive)
